Test results: ChEMBL document CHEMBL4118276, “The mimics of Nε-acyl-lysine derived from cysteine as sirtuin inhibitors” (Bioorg Med Chem Lett, 2018)
Active and inactive are the calls of the source. The rule behind the calls is not given here. Residues, ends and D or L forms follow the SMILES beside them. *: point of attachment. X2 = CCCCCCCCCCCCCNC(=O)CCC*; X1 = CCCCCCCCCCNC(=O)CCC*; X3 = CCCCCCCCNC(=O)CCC*

Assays:
[1] = biological target: T1, NAD-dependent protein deacylase sirtuin-5, mitochondrial (Homo sapiens, UniProt Q9NXA8); assay: Inhibition of human SIRT5 expressed in Escherichia coli BL21 using H3K9AcWW as substrate preincubated for 15 mins followed by substrate addition measured after 1 hr by HPLC analysis
Target sequence in this assay (Q9NXA8 whole entry, the tested form may be a part): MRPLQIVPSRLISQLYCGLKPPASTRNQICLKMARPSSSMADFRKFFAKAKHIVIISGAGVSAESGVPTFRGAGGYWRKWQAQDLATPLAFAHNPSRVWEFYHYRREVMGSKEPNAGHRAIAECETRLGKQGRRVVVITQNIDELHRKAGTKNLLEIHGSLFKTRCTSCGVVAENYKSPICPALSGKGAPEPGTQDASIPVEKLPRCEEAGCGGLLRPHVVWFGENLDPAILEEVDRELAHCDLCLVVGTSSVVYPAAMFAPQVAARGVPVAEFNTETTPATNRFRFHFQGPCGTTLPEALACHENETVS

[2] = biological target: T2, NAD-dependent protein deacylase sirtuin-6 (Homo sapiens, UniProt Q8N6T7); assay: Inhibition of human SIRT6 (1 to 294 residues) expressed in Escherichia coli Rosetta (DE3) using H3K9AcWW as substrate preincubated for 15 mins followed by substrate addition measured after 1 hr by HPLC analysis
T2 sequence (Q8N6T7 whole entry, the tested form may be a part): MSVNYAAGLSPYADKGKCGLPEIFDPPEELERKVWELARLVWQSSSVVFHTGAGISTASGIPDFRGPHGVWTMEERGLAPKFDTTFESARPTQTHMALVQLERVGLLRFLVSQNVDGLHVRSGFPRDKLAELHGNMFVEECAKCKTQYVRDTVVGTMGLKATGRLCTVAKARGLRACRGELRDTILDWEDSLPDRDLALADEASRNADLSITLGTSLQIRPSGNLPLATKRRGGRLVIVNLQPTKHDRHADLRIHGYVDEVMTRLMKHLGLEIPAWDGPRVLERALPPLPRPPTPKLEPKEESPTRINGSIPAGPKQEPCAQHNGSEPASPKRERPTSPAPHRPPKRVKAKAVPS

[3] = biological target: T3, NAD-dependent protein deacetylase sirtuin-2 (Homo sapiens) (UniProt Q8IXJ6); assay: Inhibition of human N-terminal His6-SUMO-tagged SIRT2 (38 to 356 residues) expressed in Escherichia coli BL21 at 250 uM using H3K9AcWW as substrate preincubated for 15 mins followed by substrate addition measured after 1 hr by HPLC analysis relative to control
T3 sequence (whole entry): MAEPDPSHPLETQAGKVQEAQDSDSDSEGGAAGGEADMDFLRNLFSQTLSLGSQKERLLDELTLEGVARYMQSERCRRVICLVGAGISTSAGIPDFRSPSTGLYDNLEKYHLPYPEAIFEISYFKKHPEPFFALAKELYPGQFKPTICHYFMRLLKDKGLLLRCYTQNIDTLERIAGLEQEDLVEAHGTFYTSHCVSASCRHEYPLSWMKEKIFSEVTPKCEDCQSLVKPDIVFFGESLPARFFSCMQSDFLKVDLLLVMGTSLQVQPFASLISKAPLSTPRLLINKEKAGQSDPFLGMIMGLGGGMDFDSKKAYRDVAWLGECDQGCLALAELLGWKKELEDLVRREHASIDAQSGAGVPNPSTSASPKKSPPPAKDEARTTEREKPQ

[4] = species: Homo sapiens; assay: Selectivity ratio of IC50 for human SIRT3 expressed in Escherichia coli BL21 to IC50 for human N-terminal His6-SUMO-tagged SIRT2 (38 to 356 residues) expressed in Escherichia coli BL21
[5] = biological target: T2, NAD-dependent protein deacylase sirtuin-6; assay: Inhibition of human SIRT6 (1 to 294 residues) expressed in Escherichia coli Rosetta (DE3) at 250 uM using H3K9AcWW as substrate preincubated for 15 mins followed by substrate addition measured after 1 hr by HPLC analysis relative to control
[6] = species: Homo sapiens; assay: Selectivity ratio of IC50 for human SIRT1 expressed in Escherichia coli BL21 to IC50 for human N-terminal His6-SUMO-tagged SIRT2 (38 to 356 residues) expressed in Escherichia coli BL21
[7] = biological target: T4, NAD-dependent protein deacetylase sirtuin-1 (Homo sapiens, UniProt Q96EB6); assay: Inhibition of human SIRT1 expressed in Escherichia coli BL21 using H3K9AcWW as substrate preincubated for 15 mins followed by substrate addition measured after 1 hr by HPLC analysis
T4 sequence (Q96EB6 whole entry): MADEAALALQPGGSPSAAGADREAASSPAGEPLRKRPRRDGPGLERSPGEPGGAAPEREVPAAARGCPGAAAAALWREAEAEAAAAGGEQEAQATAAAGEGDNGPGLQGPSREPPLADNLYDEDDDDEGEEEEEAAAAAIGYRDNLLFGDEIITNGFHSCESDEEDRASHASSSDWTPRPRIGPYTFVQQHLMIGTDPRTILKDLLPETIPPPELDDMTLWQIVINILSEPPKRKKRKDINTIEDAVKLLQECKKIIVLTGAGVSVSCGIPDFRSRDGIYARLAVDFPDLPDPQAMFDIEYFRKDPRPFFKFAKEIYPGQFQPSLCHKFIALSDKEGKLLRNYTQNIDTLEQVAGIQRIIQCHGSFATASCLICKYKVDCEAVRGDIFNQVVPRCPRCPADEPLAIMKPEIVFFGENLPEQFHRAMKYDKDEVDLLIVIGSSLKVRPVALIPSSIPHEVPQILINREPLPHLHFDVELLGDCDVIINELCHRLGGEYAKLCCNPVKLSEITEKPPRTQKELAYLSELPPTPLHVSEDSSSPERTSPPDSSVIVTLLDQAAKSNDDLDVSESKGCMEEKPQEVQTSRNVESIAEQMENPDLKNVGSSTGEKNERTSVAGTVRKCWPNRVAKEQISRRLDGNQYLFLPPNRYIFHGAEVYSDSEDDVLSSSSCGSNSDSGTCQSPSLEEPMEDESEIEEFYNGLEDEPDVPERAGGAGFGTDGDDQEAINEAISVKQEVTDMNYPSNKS

[8] = biological target: T5, NAD-dependent protein deacetylase sirtuin-1 (Homo sapiens) (UniProt Q96EB6); assay: Inhibition of human SIRT1 expressed in Escherichia coli BL21 at 250 uM using H3K9AcWW as substrate preincubated for 15 mins followed by substrate addition measured after 1 hr by HPLC analysis relative to control
T5 sequence (whole entry): T4 sequence (Q96EB6 whole entry)

[9] = biological target: T6, NAD-dependent protein deacetylase sirtuin-2 (Homo sapiens, UniProt Q8IXJ6); assay: Inhibition of human N-terminal His6-SUMO-tagged SIRT2 (38 to 356 residues) expressed in Escherichia coli BL21 using H3K9AcWW as substrate preincubated for 15 mins followed by substrate addition measured after 1 hr by HPLC analysis
T6 sequence (Q8IXJ6 whole entry): T3 sequence (whole entry)

[10] = species: Homo sapiens; assay: Selectivity ratio of IC50 for human SIRT6 (1 to 294 residues) expressed in Escherichia coli Rosetta (DE3) to human N-terminal His6-SUMO-tagged SIRT2 (38 to 356 residues) expressed in Escherichia coli BL21
[11] = biological target: T7, NAD-dependent protein deacetylase sirtuin-3, mitochondrial (Homo sapiens, UniProt Q9NTG7); assay: Inhibition of human SIRT3 expressed in Escherichia coli BL21 using H3K9AcWW as substrate preincubated for 15 mins followed by substrate addition measured after 1 hr by HPLC analysis
T7 sequence (Q9NTG7 whole entry): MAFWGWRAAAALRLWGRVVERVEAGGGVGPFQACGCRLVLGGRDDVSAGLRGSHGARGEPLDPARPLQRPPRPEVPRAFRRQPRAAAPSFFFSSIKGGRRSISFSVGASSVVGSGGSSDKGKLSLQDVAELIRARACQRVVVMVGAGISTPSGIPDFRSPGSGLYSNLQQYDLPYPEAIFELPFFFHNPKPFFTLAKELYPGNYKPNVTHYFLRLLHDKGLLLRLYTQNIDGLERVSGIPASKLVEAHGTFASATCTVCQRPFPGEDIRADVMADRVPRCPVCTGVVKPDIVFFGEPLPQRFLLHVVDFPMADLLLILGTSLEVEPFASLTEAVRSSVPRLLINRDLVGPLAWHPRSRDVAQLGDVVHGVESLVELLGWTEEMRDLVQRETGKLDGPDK

[12] = biological target: T1, NAD-dependent protein deacylase sirtuin-5, mitochondrial; assay: Inhibition of human SIRT5 expressed in Escherichia coli BL21 at 250 uM using H3K9AcWW as substrate preincubated for 15 mins followed by substrate addition measured after 1 hr by HPLC analysis relative to control
Target sequence in this assay (Q9NXA8 37-310 limits assumed): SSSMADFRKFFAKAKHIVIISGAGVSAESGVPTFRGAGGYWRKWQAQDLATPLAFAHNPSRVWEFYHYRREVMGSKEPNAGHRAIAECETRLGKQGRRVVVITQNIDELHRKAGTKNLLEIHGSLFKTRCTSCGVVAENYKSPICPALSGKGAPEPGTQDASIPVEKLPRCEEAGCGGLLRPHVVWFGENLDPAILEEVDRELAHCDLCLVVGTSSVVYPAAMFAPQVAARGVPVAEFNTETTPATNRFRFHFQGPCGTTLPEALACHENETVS

[13] = species: Homo sapiens; assay: Selectivity ratio of IC50 for human SIRT5 expressed in Escherichia coli BL21 to IC50 for human N-terminal His6-SUMO-tagged SIRT2 (38 to 356 residues) expressed in Escherichia coli BL21
[14] = biological target: T3, NAD-dependent protein deacetylase sirtuin-2 (Homo sapiens); assay: Competitive inhibition of human N-terminal His6-SUMO-tagged SIRT2 (38 to 356 residues) expressed in Escherichia coli BL21 at 5 to 10 uM using H3K9AcWW as substrate assessed as increase in substrate Km preincubated for 15 mins followed by substrate addition measured after 1 hr by double-reciprocal plot analysis
[15] = biological target: T2, NAD-dependent protein deacylase sirtuin-6; assay: Inhibition of human SIRT6 (1 to 294 residues) expressed in Escherichia coli Rosetta (DE3) at 333 uM using H3K9AcWW as substrate preincubated for 15 mins followed by substrate addition measured after 1 hr by HPLC analysis relative to control
[16] = biological target: T5, NAD-dependent protein deacetylase sirtuin-1 (Homo sapiens); assay: Inhibition of human SIRT1 expressed in Escherichia coli BL21 at 333 uM using H3K9AcWW as substrate preincubated for 15 mins followed by substrate addition measured after 1 hr by HPLC analysis relative to control
[17] = biological target: T3, NAD-dependent protein deacetylase sirtuin-2 (Homo sapiens); assay: Inhibition of human N-terminal His6-SUMO-tagged SIRT2 (38 to 356 residues) expressed in Escherichia coli BL21 at 333 uM using H3K9AcWW as substrate preincubated for 15 mins followed by substrate addition measured after 1 hr by HPLC analysis relative to control
[18] = biological target: T1, NAD-dependent protein deacylase sirtuin-5, mitochondrial; assay: Inhibition of human SIRT5 expressed in Escherichia coli BL21 at 333 uM using H3K9AcWW as substrate preincubated for 15 mins followed by substrate addition measured after 1 hr by HPLC analysis relative to control
Target sequence in this assay (Q9NXA8 37-310 limits assumed): as above

[19] = biological target: T8, NAD-dependent protein deacetylase sirtuin-3, mitochondrial (Homo sapiens) (UniProt Q9NTG7); assay: Inhibition of human SIRT3 expressed in Escherichia coli BL21 at 333 uM using H3K9AcWW as substrate preincubated for 15 mins followed by substrate addition measured after 1 hr by HPLC analysis relative to control
T8 sequence (whole entry): T7 sequence (Q9NTG7 whole entry)

| SMILES | IC50 [1] | IC50 [2] | IC50 [11] | inhibition [15] | inhibition [16] | inhibition [17] | inhibition [18] | inhibition [19] | also measured |
| --- | --- | --- | --- | --- | --- | --- | --- | --- | --- |
| CCCCCCCCCCCCCNC(=O)CCCSC[C@H](NC(=O)[C@H](CCCNC(=N)N)NC(=O)[C@H](C)NC(=O)[C@@H](NC(=O)[C@H](CCC(N)=O)NC(=O)[C@@H](N)CCCCN)[C@@H](C)O)C(=O)N[C@@H](CO)C(=O)N[C@H](C(=O)NCC(=O)NCC(=O)N[C@@H](CCCCN)C(=O)O)[C@@H](C)O (H-KQTARC(X2)STGGK-OH) | > 50 µM | > 20 µM | > 50 µM |  |  |  |  |  | inhibition [3]: 87%; Ratio IC50 [4]: 10; inhibition [5]: 54%; Ratio IC50 [6]: 10; IC50 [7]: > 200 µM; inhibition [8]: 67%; IC50 [9]: 35 µM; Ratio IC50 [10]: 10; inhibition [12]: inactive; Ratio IC50 [13]: 10 |
| CCCCCCCCCCCCCC(=S)NCCCC[C@H](NC(=O)OCc1ccccc1)C(=O)Nc1ccccc1 | > 200 µM | > 200 µM | > 200 µM |  |  |  |  |  |  |
| CCCCCCCCCCNC(=O)CCCSC[C@H](NC(=O)[C@H](CCCNC(=N)N)NC(=O)[C@H](C)NC(=O)[C@@H](NC(=O)[C@H](CCC(N)=O)NC(=O)[C@@H](N)CCCCN)[C@@H](C)O)C(=O)N[C@@H](CO)C(=O)N[C@H](C(=O)NCC(=O)NCC(=O)N[C@@H](CCCCN)C(=O)O)[C@@H](C)O (H-KQTARC(X1)STGGK-OH) | > 500 µM | > 250 µM | > 500 µM |  |  |  |  |  | inhibition [3]: 95%; Ratio IC50 [4]: > 10; inhibition [5]: 41%; Ratio IC50 [6]: > 10; IC50 [7]: > 200 µM; inhibition [14]: Active; inhibition [8]: 60%; IC50 [9]: 20 µM; Ratio IC50 [10]: > 10; inhibition [12]: inactive; Ratio IC50 [13]: > 10 |
| CCCCNC(=O)CCCSC[C@H](NC(=O)OCc1ccccc1)C(=O)Nc1ccccc1 |  |  |  | 26% | inactive | 25% | inactive | inactive |  |
| O=C(O)CNC(=O)CCCSC[C@H](NC(=O)OCc1ccccc1)C(=O)Nc1ccccc1 |  |  |  | 53% | 26% | inactive | inactive | inactive |  |
| CCCCCCCCCCCCCNC(=O)CCCSC[C@H](NC(=O)OCc1ccccc1)C(=O)Nc1ccccc1 |  |  |  | 31% | inactive | 20% | inactive | inactive |  |
| O=C(O)CCCNC(=O)CCCSC[C@H](NC(=O)OCc1ccccc1)C(=O)Nc1ccccc1 |  |  |  | 35% | inactive | inactive | inactive | inactive |  |

Now from value to molecule, other results behind:

| IC50 [1] | IC50 [2] | IC50 [11] | inhibition [15] | inhibition [16] | inhibition [17] | inhibition [18] | inhibition [19] | SMILES | also measured |
| --- | --- | --- | --- | --- | --- | --- | --- | --- | --- |
|  | 20.9 µM |  |  |  |  |  |  | NC(=O)CCCCC[C@H](N)C(=O)O |  |
|  |  |  | inactive | inactive | inactive | inactive | 15% | O=C(CCCSC[C@H](NC(=O)OCc1ccccc1)C(=O)Nc1ccccc1)NCc1ccc([N+](=O)[O-])cc1 |  |
|  |  |  | inactive | inactive | 25% | inactive | inactive | CCCCCCNC(=O)CCCSC[C@H](NC(=O)OCc1ccccc1)C(=O)Nc1ccccc1 |  |
| > 500 µM | > 500 µM | > 500 µM |  |  |  |  |  | CCCCCCCCNC(=O)CCCSC[C@H](NC(=O)[C@H](CCCNC(=N)N)NC(=O)[C@H](C)NC(=O)[C@@H](NC(=O)[C@H](CCC(N)=O)NC(=O)[C@@H](N)CCCCN)[C@@H](C)O)C(=O)N[C@@H](CO)C(=O)N[C@H](C(=O)NCC(=O)NCC(=O)N[C@@H](CCCCN)C(=O)O)[C@@H](C)O (H-KQTARC(X3)STGGK-OH) | inhibition [3]: 66%; inhibition [5]: inactive; IC50 [7]: > 300 µM; inhibition [8]: 23%; IC50 [9]: 237 µM; inhibition [12]: inactive |
|  |  |  | inactive | inactive | 60% | 14% | inactive | CCCCCCCCNC(=O)CCCSC[C@H](NC(=O)OCc1ccccc1)C(=O)Nc1ccccc1 |  |
